Laboratory results: patent publication US20090124587A1, “METHODS FOR TREATING CANCER USING 17alpha-HYDROXYLASE/C17,20-LYASE INHIBITORS” (priority 2007, published 2009)
Like-named read-outs stand apart in the source and are kept apart here.

Assay: Food effect PK study, two single oral 1000 mg doses of abiraterone acetate, fed (high fat) vs fasted
Format: in vivo, human
Conditions: for concentration at 1.017 h: read-out: Abiraterone Concentration in plasma; for clearance: read-out: Cl F obs (converted); for Vd/F: read-out: Vz F obs; for concentration at 1.033 hr: sample time 1.033 hr; for concentration at 6 hr: sample time 6.000 hr; for concentration at 8 hr: sample time 8.000 hr; for concentration at 1 hr: sample time 1.000 hr; for concentration at 7.983 hr: sample time 7.983 hr
Experimental: To measure the amount of abiraterone and abiraterone acetate in the samples, these compounds were extracted from 100 uL human plasma using solid phase extraction (SPE) with cation mixed-mode polymer cartridges. Extracts were evaporated to dryness before reconstitution and analysis. Chromatography was carried out using a Luna™ C5 column (5 μm, 50 mm×2.1 mm id) with a gradient mobile phase consisting of 10 mM ammonium acetate and 2% propan-2-ol in acetonitrile. The flow rate was 0.2 mL/min and the run time 10.5 minutes. Abiraterone and abiraterone acetate were ionized using the electrospray interface in positive ion mode. Detection of analytes was via tandem mass spectrometry (MS/MS) in the multiple reaction monitoring (MRM) mode.
PK modeling was conducted using a non-compartmental model, extra vascular input for plasma with WinNonLin Software®. Pharmacokinetic parameters estimated in the model include:
Based on the above results, the PK parameters for a single dose of 1000 mg/day of abiraterone acetate were further studied in the 3 subjects who were administered the 1000 mg/day dose and in 3 additional subjects. Two single oral doses (1000 mg) of abiraterone acetate were administered separately, one concomitantly with food of high fat content and one in fasting state. The first single dose was administered on day −9 with PK blood samples being taken at 1, 2, 4, 6, 8, 24, 48 and 72 hours post dose. The second single dose was administered on day −3 with PK blood samples being taken at 1, 2, 4, 6, 8, 24 and 48 hours post dose for analysis.

[1] = human, plasma, oral, 1000 mg, Patient 13, 1000 mg, Fasted
[2] = human, plasma, oral, 1000 mg, Patient 13, 1000 mg, Fed
[3] = human, plasma, oral, 1000 mg, Patient 13, Fasted
[4] = human, plasma, oral, 1000 mg, Patient 13, Fed
[5] = human, plasma, oral, 1000 mg, Patient 14, 1000 mg, Fasted
[6] = human, plasma, oral, 1000 mg, Patient 14, 1000 mg, Fed
[7] = human, plasma, oral, 1000 mg, Patient 14, Fasted
[8] = human, plasma, oral, 1000 mg, Patient 14, Fed
[9] = human, plasma, oral, 1000 mg, Patient 15, 1000 mg, Fasted
[10] = human, plasma, oral, 1000 mg, Patient 15, 1000 mg, Fed
[11] = human, plasma, oral, 1000 mg, Patient 15, Fasted
[12] = human, plasma, oral, 1000 mg, Patient 15, Fed

With `C[C@]12CC[C@H](O)CC1=CC[C@@H]1[C@@H]2CC[C@]2(C)C(c3cccnc3)=CC[C@@H]12` [Abiraterone] the “Abiraterone plasma levels with food in comparison with fasting” value (1000 mg, concomitantly with food vs fasting) was “higher”, the HL (Patient 13, 1000 mg, Fasted) was 10.2 h and the HL (Patient 13, 1000 mg, Fed) was 10.7 h. For the same compound, the concentration at 1.017 h (Patient 13, Fasted, 1000 mg, pre-dose (day −3)) was 0.0 nM, the concentration at 1.017 h (Patient 13, Fed, 1000 mg, pre-dose (day −9)) was 0.0 nM and the “Abiraterone Concentration in plasma” value (Patient 13, Fed, 1000 mg, sample time 72.000 hr) was “BLLOQ^1”. The HL (Patient 14, 1000 mg, Fasted) was 6.6 h, the HL (Patient 14, 1000 mg, Fed) was 8.8 h and the concentration at 1.017 h (Patient 14, Fasted, 1000 mg, pre-dose (day −9)) was 0.0 nM. The “Abiraterone Concentration in plasma” value (Patient 14, Fasted, 1000 mg, sample time 48.217 hr) was “BLLOQ”, the concentration at 1.017 h (Patient 14, Fed, 1000 mg, pre-dose (day −3)) was 0.0 nM and the HL (Patient 15, 1000 mg, Fasted) was 6.6 h. The HL (Patient 15, 1000 mg, Fed) was 8.0 h, the “Abiraterone Concentration in plasma” value (Patient 15, Fasted, 1000 mg, pre-dose (day −3)) was “BLLOQ” and the concentration at 1.017 h (Patient 15, Fed, 1000 mg, pre-dose (day −9)) was 0.0 nM. The “Abiraterone Concentration in plasma” value (Patient 15, Fed, 1000 mg, sample time 2.000 hr) was “BLLOQ”, the “Abiraterone Concentration in plasma” value (Patient 15, Fed, 1000 mg, sample time 70.100 hr) was “BLLOQ” and the HL (Patient 19, 1000 mg, Fasted) was 8.0 h. For the same compound, the HL (Patient 19, 1000 mg, Fed) was 10.0 h, the concentration at 1.017 h (Patient 19, Fasted, 1000 mg, pre-dose (day −9)) was 0.0 nM and the “Abiraterone Concentration in plasma” value (Patient 19, Fasted, 1000 mg, sample time 71.950 hr) was “BLLOQ”. The concentration at 1.017 h (Patient 19, Fed, 1000 mg, pre-dose (day −3)) was 0.0 nM, the HL (Patient 20, 1000 mg, Fasted) was 15.3 h and the HL (Patient 20, 1000 mg, Fed) was 18.3 h. The concentration at 1.017 h (Patient 20, Fasted, 1000 mg, pre-dose (day −3)) was 5.1 nM, the “Abiraterone Concentration in plasma” value (Patient 20, Fed, 1000 mg, pre-dose (day −9)) was “BLLOQ” and the HL (Patient 21, 1000 mg, Fasted) was 12.6 h. The HL (Patient 21, 1000 mg, Fed) was 9.7 h, the concentration at 1.017 h (Patient 21, Fasted, 1000 mg, pre-dose (day −9)) was 0 nM and the “Abiraterone Concentration in plasma” value (Patient 21, Fed, 1000 mg, pre-dose (day −3)) was “BLLOQ”. The “difference in mean drug levels between the dosing regimes (fed vs fasted)” value (extended cohort of six patients) was “Up to a two fold difference”, the clearance [1] was 12600 mL/min and the Vd/F [1] was 11100 L. The clearance [2] was 4240 mL/min, the Vd/F [2] was 3920 L and the AUC(0-inf) [3] was 3.78 µM·h. For the same compound, the AUC(0-t) [3] was 3.7 µM·h, the Cmax [3] was 548 nM and the Tmax [3] was 1.03 h. It also gave a concentration at 1.033 hr [3] of 548 nM, a concentration at 2.017 hr (human, plasma, oral, 1000 mg, Patient 13, Fasted, sample time 2.017 hr) of 500 nM and a concentration at 4 hr (human, plasma, oral, 1000 mg, Patient 13, Fasted, sample time 4.000 hr) of 304 nM. For the same compound, the concentration at 6 hr [3] was 104 nM, the concentration at 8 hr [3] was 89.4 nM and the concentration at 24.667 hr (human, plasma, oral, 1000 mg, Patient 13, Fasted, sample time 24.667 hr) was 34.1 nM. It also gave a concentration at 48.117 hr (human, plasma, oral, 1000 mg, Patient 13, Fasted, sample time 48.117 hr) of 5.8 nM, an AUC(0-inf) [4] of 11.2 µM·h and an AUC(0-t) [4] of 10.8 µM·h. For the same compound, the Cmax [4] was 1180 nM, the Tmax [4] was 4 h and the concentration at 1 hr [4] was 130 nM. For the same compound, the concentration at 2 h (human, plasma, oral, 1000 mg, Patient 13, Fed, sample time 2.000 hr) was 675 nM, the concentration at 4 h (human, plasma, oral, 1000 mg, Patient 13, Fed, sample time 4.000 hr) was 1180 nM and the concentration at 7.983 hr [4] was 392 nM. For the same compound, the concentration at 23.983 hr (human, plasma, oral, 1000 mg, Patient 13, Fed, sample time 23.983 hr) was 93.7 nM, the concentration at 48.5 hr (human, plasma, oral, 1000 mg, Patient 13, Fed, sample time 48.500 hr) was 26.8 nM and the clearance [5] was 32600 mL/min. It also gave a Vd/F [5] of 18500 L, a clearance [6] of 4050 mL/min and a Vd/F [6] of 3070 L. For the same compound, the AUC(0-inf) [7] was 1.46 µM·h, the AUC(0-t) [7] was 1.35 µM·h and the Cmax [7] was 205 nM. It also gave a Tmax [7] of 4.07 h, a concentration at 1 hr [7] of 76.3 nM and a concentration at 2 hr (human, plasma, oral, 1000 mg, Patient 14, Fasted, sample time 2.000 hr) of 82.5 nM. For the same compound, the concentration at 4.067 hr (human, plasma, oral, 1000 mg, Patient 14, Fasted, sample time 4.067 hr) was 205 nM, the concentration at 6.05 hr (human, plasma, oral, 1000 mg, Patient 14, Fasted, sample time 6.050 hr) was 99.8 nM and the concentration at 8.017 hr (human, plasma, oral, 1000 mg, Patient 14, Fasted, sample time 8.017 hr) was 48.6 nM. For the same compound, the concentration at 24.017 hr (human, plasma, oral, 1000 mg, Patient 14, Fasted, sample time 24.017 hr) was 12.1 nM, the concentration at 71.333 hr (human, plasma, oral, 1000 mg, Patient 14, Fasted, sample time 71.333 hr) was 0 nM and the AUC(0-inf) [8] was 11.8 µM·h. For the same compound, the AUC(0-t) [8] was 11.6 µM·h, the Cmax [8] was 2210 nM and the Tmax [8] was 1.03 h. For the same compound, the concentration at 1.033 hr [8] was 2210 nM, the concentration at 2.033 hr (human, plasma, oral, 1000 mg, Patient 14, Fed, sample time 2.033 hr) was 1770 nM and the concentration at 4 hr (human, plasma, oral, 1000 mg, Patient 14, Fed, sample time 4.000 hr) was 464 nM. For the same compound, the concentration at 6 hr [8] was 516 nM, the concentration at 7.983 hr [8] was 335 nM and the concentration at 24.083 hr (human, plasma, oral, 1000 mg, Patient 14, Fed, sample time 24.083 hr) was 79.7 nM. It also gave a concentration at 47.7 hr (human, plasma, oral, 1000 mg, Patient 14, Fed, sample time 47.700 hr) of 14.2 nM, a clearance [9] of 18400 mL/min and a Vd/F [9] of 10500 L. The clearance [10] was 4610 mL/min, the Vd/F [10] was 3190 L and the AUC(0-inf) [11] was 2.59 µM·h. It also gave an AUC(0-t) [11] of 2.37 µM·h, a Cmax [11] of 420 nM and a Tmax [11] of 2.98 h. For the same compound, the concentration at 1 hr [11] was 8.7 nM, the concentration at 2.983 hr (human, plasma, oral, 1000 mg, Patient 15, Fasted, sample time 2.983 hr) was 420 nM and the concentration at 3.967 hr (human, plasma, oral, 1000 mg, Patient 15, Fasted, sample time 3.967 hr) was 242 nM. It also gave a concentration at 5.983 hr (human, plasma, oral, 1000 mg, Patient 15, Fasted, sample time 5.983 hr) of 131 nM, a concentration at 8 hr [11] of 111 nM and a concentration at 22.983 hr (human, plasma, oral, 1000 mg, Patient 15, Fasted, sample time 22.983 hr) of 22.4 nM. The AUC(0-inf) [12] was 10.3 µM·h, the AUC(0-t) [12] was 10.1 µM·h and the Cmax [12] was 1120 nM. The Tmax [12] was 6.08 h and the concentration at 1 hr [12] was 0 nM.
